# Assays:
# K6 myoblasts = test: DNA synthesis (BrdU incorporation) in K6 myoblasts; assay type: cell-based, rat; conditions: serum-starved K6 myoblasts, 16 h; FCS at 10%
# Experimental: Effects of insulin, insulin analogs and IGF-I on the incorporation of 5-bromo-2′-deoxyuridine (BrdU) into DNA in K6 myoblasts. Myoblasts were serum-starved for 30 h in DMEM and subsequently incubated with BrdU in the absence (basal) or presence of the indicated concentrations of peptide hormones or fetal calf serum (FCS) for 16 h. Cells were fixed, denatured and the incorporation of BrdU was determined using an anti-BrdU antiserum and ECL detection. Data are mean values±SEM of four separate experiments.
# For monitoring DNA synthesis, K6 myoblasts (1×10^4 cells/well) were seeded in 24-well microtiter tissue culture plates and were cultured for 24 h in DMEM containing 10% FCS, followed by a 30 h culture period under serum-free conditions. Cells were then stimulated with the different peptide hormones or 10% FCS for 16 h with the simultaneous addition of 5-bromo-2′-deoxyundine (BrdU). After removing the labeling mediums the cells were fixed and the DNA was denatured by addition of FixDenat (Boehringer Mannheim, Germany). Cells were then incubated with a peroxidase-conjugated anti-BrdU antiserum, and after addition of substrate the light emission was quantified on a Lumilmager work station.
# INS-1 cells = test: Cytokine-induced apoptosis in pancreatic β-cells (INS-1, nucleosomal release ELISA); assay type: cell-based, rat; conditions: IL-1β + IFN-γ, 24 h, IGF-I 10 nM, mean ± SEM of 4-5 experiments
# Experimental: The rat insulinoma cell line INS-1 was grown in RPMI 1640 medium supplemented with 10% heat-inactivated fetal calf serum (FCS), 500 U/ml penicillin, 50 μg/ml streptomycin, 2 mmol/l glutamine and 50 μmol/l 2-mercaptoethanol and passaged by trypsinization. Functional integrity of the cells was confirmed by measuring glucose-stimulated insulin secretion. INS-1 cells were routinely seeded at 3.5×10^5 cells/well of a 12-well plate for cell death detection experiments and used on day 4 at 60-70% confluence.
# Subconfluent INS-1 cells were incubated for 2 h in RPMI 1640 medium (Eggenstein, Germany) without FCS supplemented with 0.5% BSA. After this serum free period the medium was removed and replaced with fresh RPMI 1640 containing 5% FCS and 0.5% BSA. […] The induced apoptosis was measured by the specific determination of mono- and oligonucleosomes in the cytoplasmatic fraction of cell lysates using a cell death detection ELISA kit (Roche). The assay is based on a quantitative sandwich-enzyme-immunoassay-principle using mouse monoclonal anti-histone and anti-DNA peroxidase antibodies. The relative degree of apoptotic cell death was photometrically determined by measuring the peroxidase activity of the immunocomplexes at 405 nm. […]
substance,measurement,setting,value
"IGF-I: insulin-like growth factor I, peptide hormone used as comparator","Increase in BrdU-incorporation / DNA synthesis, fold",K6 myoblasts,4 fold
same,Inhibition of cytokine-induced apoptosis,INS-1 cells,42 ± 2%
